Source: patent US10947182B1, “Cinnamyl alcohol cassic acid ester with antibacterial activity and a method of preparing the same” (SHAANXI UNIVERSITY OF SCIENCE AND TECHNOLOGY, priority 2020, dated 2021)

What was measured:
[1] = system: Staphylococcus aureus (SAU); experiment: paper diffusion method drug sensitivity test; format: cell-based; conditions: 30 μg/tablet paper disc (6.35 mm), LB plate, 37° C., 24 h
Description: (§1) The antimicrobial efficacy was determined by a paper diffusion method drug sensitivity test.
(§2) Experimental strains: Staphylococcus aureus (SAU), multi-resistant Staphylococcus aureus 18-206. The experimental strain was identified by Huashan Hospital Affiliated to Fudan University (Institute of Antibiotic of Fudan University).
(§3) Drug sensitive paper: The drug sensitive paper is a special drug sensitive paper with a diameter of 6.35 mm and a water absorption of 0.02 mL. The control drug was cefazolin (30 μg/tablet); the test drugs were cassic acid (30 μg/tablet), cinnamyl alcohol (30 μg/tablet) and cinnamyl alcohol cassic acid ester (30 μg/tablet).
(§4) Reagents: LB agar medium, LA broth medium, 0.5% DMSO solution.
(§5) The experimental strains were inoculated in non-selective medium and placed in air at 37° C. for 24 h. Pick a single colony that grows well and inoculate it into broth medium, incubate at 35° C.±2° C. for 6 hours, and use LA broth medium to calibrate the concentration of the bacterial solution to 0.5 Mie turbidimetric tube (1.5×10^8 CFU/mL). A bacterial suspension is obtained.
(§6) Weigh the LB dry powder, sterilize at 103.4 Kpa, 121.3° C. high-pressure steam for 15 min, and then put it in a 40° C.-50° C. water bath. Place a sterile empty plate (inner diameter 9 cm) on the surface of the ultra-clean table water table, shake and shake LB, and then pour the plate. The thickness of each plate is 3 mm to 4 mm. After the plate is cooled at room temperature, store it in the refrigerator at 2° C.-8° C. Use a sterile cotton swab to dip the bacterial solution, and evenly coat the surface of the LB plate 3 times. After inoculation of the bacterial suspension, the LB plate was dried at room temperature for 3 min to 5 min. Use sterile forceps to closely attach the antibacterial drug paper to the dish. Put the dish upside down and place it in a 37° C. incubator for 24 h. Observe the result and measure the diameter. Taking 0.5% DMSO solution as a negative control, the antibacterial activity is expressed by the diameter of the inhibition zone. The inhibition zone ≥17 mm, sensitive; the inhibition zone is 15 mm-16 mm, intermediary; the inhibition zone ≤14 mm, drug resistance.

[2] = system: multi-resistant Staphylococcus aureus 18-206; experiment: paper diffusion method drug sensitivity test; format: cell-based; conditions: for Zone of inhibition: Multi-resistant Staphylococcus aureus 18-206, 30 μg/tablet paper disc (6.35 mm), LB plate, 37° C., 24 h; for inhibitory effect on drug-resistant bacteria (in words): multi-resistant Staphylococcus aureus 18-206, summary of Table 1
Description: as §1, §2, §3, §4, §5, §6

Row | SMILES | Zone of inhibition [1] [mm] | Zone of inhibition [2] [mm] | inhibitory effect on drug-resistant bacteria (in words) [2]
1 | Cc1nnc(SCC2=C(C(=O)O)N3C(=O)[C@@H](NC(=O)Cn4cnnn4)[C@H]3SC2)s1 [Cefazolin] | 34 | 22 | 
2 | O=C(O)c1cc(O)c2c(c1)C(=O)c1cccc(O)c1C2=O [Cassic acid] | 7 | 7 | 
3 | OCC=Cc1ccccc1 [Cinnamyl alcohol] | 17 | 0 | no inhibitory effect
4 | O=C(OC/C=C/c1ccccc1)c1cc(O)c2c(c1)C(=O)c1cccc(O)c1C2=O [Cinnamyl alcohol cassic acid ester, Cinnamyl 4,5-dihydroxy-9,10-dioxo-9,10-dihydroanthracene-2-carboxylate] | 13 | 15 | strong suppression effect
